Measurements published in paper PMC9264725 (European Journal of Medicinal Chemistry, 2022).
Like-named read-outs stand apart in the source and are kept apart here.

Experiments:
[1] = test system: SARS-CoV-2 Delta strain; test: Plaque reduction neutralization test in Vero E6 cells, Delta; assay type: cell-based; settings: PRNT, three days
[2] = test system: SARS-CoV-2 Beta strain; test: Plaque reduction neutralization test in Vero E6 cells, Beta; assay type: cell-based; settings: PRNT, three days
[3] = test system: SARS-CoV-2 USA-WA1/2020 strain; test: Plaque reduction neutralization test in Vero E6 cells, USA-WA1/2020; assay type: cell-based; settings: PRNT, three days
[4] = target: M^Pro-eGFP ectopically expressed in 293T cells (Severe acute respiratory syndrome coronavirus 2, UniProt P0DTD1); test: cell-based; assay type: cell-based, SARS-CoV-2
[5] = test system: SARS-CoV-2; settings: read-out: EC50 as SARS-CoV-2 inhibitor; cited from earlier work
[6] = test system: M^Pro; settings: cited from earlier work
[7] = rats, oral administration; cited from earlier work

CC(C)(C)CC(=O)N[C@H](C(=O)N1C[C@H]2[C@@H]([C@H]1C(=O)N[C@H](C=O)C[C@@H]1CCNC1=O)C2(C)C)C(C)(C)C [MPI40]
Antiviral EC50 [1]: no inhibition at all tested concentrations
Antiviral EC50 [2]: no inhibition at all tested concentrations
Antiviral EC50 [3]: no inhibition at all tested concentrations

CC(C)(C)OC(=O)N[C@H](C(=O)N1C[C@H]2[C@@H]([C@H]1C(=O)N[C@H](C=O)C[C@@H]1CCNC1=O)C2(C)C)C(C)(C)C [MPI43]
in cellulo potency higher than MPI40 [4]: 20 fold

CC(C)[C@H](NC(=O)NC(C)(C)C)C(=O)N[C@@H](CC1CC1)C(=O)N[C@H](C=O)C[C@@H]1CCNC1=O [MPI39]
EC50 [4]: > 10 µM

MPI8
EC50 [5]: 0.03 µM
IC50 ([6]; read-out: IC50 (in vitro potency)): ~0.1 µM
half-life [7]: 1.22 h

CC(C)(C)NC(=O)N[C@H](C(=O)N1C[C@H]2[C@@H]([C@H]1C(=O)NC(CC1CCC1)C(=O)C(N)=O)C2(C)C)C(C)(C)C (stereo partly shown) [Boceprevir]
IC50 ([6]; read-out: Enzymatic IC50, ref 15): 8 µM
IC50 ([6]; read-out: Enzymatic IC50, ref 16): 4.2 ± 0.6 µM
